The values below come from patent publication US20050192279A1, “Pyridazinones as antagonists of alpha4 integrins” (priority 2004, published 2005).

The target of assay [1] is T1, α4β1 (Homo sapiens, UniProt P05556+P13612).
T1 construct: Ramos Cell Adhesion Assay (α4β1 Mediated Adhesion/VCAM-1); endogenous in cells; host or cells: Ramos cells
The assay can be described thus: Ramos Cell Adhesion Assay (α4β1 Mediated Adhesion/VCAM-1). As to conditions: Ramos cell adhesion to hVCAM-1; read-out: α4β1 IC50. In kind it is cell-based. The gist of the method:
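Plates coated overnight at 4° C with recombinant hVCAM-1 at 4.0 μg/mL, pH 9.0, then blocked in PBS/1% BSA. Calcein AM-labeled Ramos cells added with compounds and left to adhere 1 h at room temperature; after washing, cells lysed in 1 M Tris pH 8.0/1% SDS.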

Assay [2] deals with T2, human α4β7 integrin (Homo sapiens, UniProt P13612+P26010).
T2 construct: expressed in transfected cells; host or cells: K562 cells, stably transfected
T2 sequence (P13612 34-1032): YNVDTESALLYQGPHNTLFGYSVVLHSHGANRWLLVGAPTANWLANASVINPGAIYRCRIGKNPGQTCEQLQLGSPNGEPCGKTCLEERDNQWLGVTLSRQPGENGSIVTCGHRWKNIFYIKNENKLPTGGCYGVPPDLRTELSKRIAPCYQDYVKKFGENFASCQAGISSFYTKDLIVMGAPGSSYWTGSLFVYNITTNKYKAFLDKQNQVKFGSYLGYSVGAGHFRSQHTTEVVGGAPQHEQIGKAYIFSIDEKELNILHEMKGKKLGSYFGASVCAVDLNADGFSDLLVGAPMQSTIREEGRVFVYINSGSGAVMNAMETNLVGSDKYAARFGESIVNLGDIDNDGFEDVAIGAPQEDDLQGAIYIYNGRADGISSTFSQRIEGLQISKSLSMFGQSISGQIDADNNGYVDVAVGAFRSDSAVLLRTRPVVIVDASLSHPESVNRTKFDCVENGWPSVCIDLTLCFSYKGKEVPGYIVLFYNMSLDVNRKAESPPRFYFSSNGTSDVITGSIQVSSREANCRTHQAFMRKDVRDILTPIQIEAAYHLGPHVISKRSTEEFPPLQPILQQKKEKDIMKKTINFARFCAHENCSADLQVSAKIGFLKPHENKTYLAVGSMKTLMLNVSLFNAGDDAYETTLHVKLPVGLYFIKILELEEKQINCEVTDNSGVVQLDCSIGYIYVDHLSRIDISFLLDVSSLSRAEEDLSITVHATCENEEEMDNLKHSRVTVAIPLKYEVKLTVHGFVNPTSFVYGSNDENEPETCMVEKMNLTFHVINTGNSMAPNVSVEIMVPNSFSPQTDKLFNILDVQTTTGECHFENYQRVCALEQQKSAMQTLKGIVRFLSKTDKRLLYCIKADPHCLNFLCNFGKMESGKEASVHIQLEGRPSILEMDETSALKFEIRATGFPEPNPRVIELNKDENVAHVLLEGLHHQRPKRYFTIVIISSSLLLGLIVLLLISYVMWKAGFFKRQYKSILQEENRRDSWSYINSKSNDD
T2 sequence (P26010 20-798): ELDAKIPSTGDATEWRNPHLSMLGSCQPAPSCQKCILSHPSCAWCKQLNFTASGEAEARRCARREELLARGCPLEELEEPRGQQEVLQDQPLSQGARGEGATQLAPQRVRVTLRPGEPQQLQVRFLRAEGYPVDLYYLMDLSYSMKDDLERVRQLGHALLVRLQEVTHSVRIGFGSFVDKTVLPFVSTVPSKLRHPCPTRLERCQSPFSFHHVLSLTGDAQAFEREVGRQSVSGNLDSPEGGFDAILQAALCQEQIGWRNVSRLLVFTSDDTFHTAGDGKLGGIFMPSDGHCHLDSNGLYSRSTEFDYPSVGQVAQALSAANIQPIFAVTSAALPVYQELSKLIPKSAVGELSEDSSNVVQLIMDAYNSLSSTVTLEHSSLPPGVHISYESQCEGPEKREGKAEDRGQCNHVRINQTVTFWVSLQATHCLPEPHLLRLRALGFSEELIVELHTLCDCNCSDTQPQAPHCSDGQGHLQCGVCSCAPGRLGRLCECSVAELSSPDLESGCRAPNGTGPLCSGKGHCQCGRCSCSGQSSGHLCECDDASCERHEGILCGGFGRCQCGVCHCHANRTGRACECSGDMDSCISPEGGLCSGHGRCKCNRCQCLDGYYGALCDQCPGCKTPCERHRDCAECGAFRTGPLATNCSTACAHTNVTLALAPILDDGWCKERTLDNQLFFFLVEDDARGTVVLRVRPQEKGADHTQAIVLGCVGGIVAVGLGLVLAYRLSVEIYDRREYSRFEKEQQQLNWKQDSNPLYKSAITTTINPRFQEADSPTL
Briefly: α4β7-K562 Cell Adhesion Assay (α4β7 Mediated Adhesion/MAdCAM-1). In kind it is cell-based. As to conditions: α4β7-K562 cell adhesion to hMAdCAM-1; read-out: α4β7 IC50. In a few lines:
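Anti-FLAG plates coated 1 h at 4° C with FLAG-hMAdCAM-1 in PBS pH 7.4, 1% BSA, 1 mM Mn2+. Stably transfected K562 cells expressing human α4β7, labelled with CFDA-SE, adhered with compound 1 h at room temperature. After four washes, bound cells lysed in 0.1 M NaOH for fluorescence read-out.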

T1 sequence (P05556 21-798, one chain of several): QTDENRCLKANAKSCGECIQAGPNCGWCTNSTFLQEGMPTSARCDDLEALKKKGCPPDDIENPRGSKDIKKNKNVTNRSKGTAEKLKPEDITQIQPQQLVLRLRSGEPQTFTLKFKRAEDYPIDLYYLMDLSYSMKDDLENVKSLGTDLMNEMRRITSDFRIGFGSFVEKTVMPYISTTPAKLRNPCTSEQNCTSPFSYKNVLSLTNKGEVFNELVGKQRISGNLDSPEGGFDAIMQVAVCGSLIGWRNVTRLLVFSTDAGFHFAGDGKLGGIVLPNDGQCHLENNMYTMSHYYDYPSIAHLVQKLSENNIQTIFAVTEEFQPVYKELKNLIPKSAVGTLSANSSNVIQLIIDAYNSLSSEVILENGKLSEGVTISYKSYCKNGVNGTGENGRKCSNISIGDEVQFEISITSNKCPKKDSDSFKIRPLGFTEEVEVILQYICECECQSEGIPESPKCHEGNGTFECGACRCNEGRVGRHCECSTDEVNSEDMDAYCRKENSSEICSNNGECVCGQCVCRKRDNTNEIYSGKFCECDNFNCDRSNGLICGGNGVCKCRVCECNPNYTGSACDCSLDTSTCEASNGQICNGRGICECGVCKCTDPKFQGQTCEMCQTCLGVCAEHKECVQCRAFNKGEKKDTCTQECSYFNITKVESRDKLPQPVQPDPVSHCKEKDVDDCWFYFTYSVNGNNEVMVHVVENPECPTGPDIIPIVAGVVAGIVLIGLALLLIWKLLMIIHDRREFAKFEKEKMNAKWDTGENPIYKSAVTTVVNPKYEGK

For the compound `COc1cnn(C)c(=O)c1-c1ccc(C[C@H](NC(=O)OCc2cccs2)C(=O)O)cc1` [Cpd 201], the IC50 (as a rule, the concentration at which inhibition is half-maximal) in assay [1] is above 5000 nM; in assay [2], 1440 nM.

Consider `COc1cnn(C)c(=O)c1-c1ccc(C[C@H](NC(=O)C2CCN(C(=O)OC(C)(C)C)CC2)C(=O)O)cc1` [Cpd 202], for which the results for the IC50 in assay [1] and in assay [2] were above 5000 nM and 1480 nM, respectively.

As to `COc1cnn(C)c(=O)c1-c1ccc(C[C@H](NC(=O)OCc2c(C)cc(C)cc2C)C(=O)O)cc1` [Cpd 203], the IC50 in assay [1] is above 5000 nM; in assay [2] it was 1780 nM.

Consider `COc1cnn(C)c(=O)c1-c1ccc(C[C@H](NC(=O)OCc2c(Cl)cccc2Cl)C(=O)O)cc1` [Cpd 204], for which the IC50 in assay [1] was above 5000 nM; in assay [2], 1870 nM.

As for `COc1cnn(C)c(=O)c1-c1ccc(C[C@H](NC(=O)c2cnc[nH]2)C(=O)O)cc1` [Cpd 205], the figures for the IC50 in assay [1] and in assay [2] were above 5000 nM and 2320 nM, respectively.

On to `COc1cnn(C)c(=O)c1-c1ccc(C[C@H](NC(=O)CCC(C)(C)C)C(=O)O)cc1` [Cpd 206], for which the IC50 in assay [1] stood at 3300 nM; in assay [2], 2550 nM.

`COc1cnn(C)c(=O)c1-c1ccc(C[C@H](NC(=O)OC2CCCCC2)C(=O)O)cc1` [Cpd 208]: the values for the IC50 in assay [1] and in assay [2] were above 5000 nM and 2760 nM, respectively.

Turning to `COc1cnn(C)c(=O)c1-c1ccc(C[C@H](NC(=O)O[C@H](C)c2ccccc2)C(=O)O)cc1` [Cpd 209], the values for the IC50 in assay [1] and in assay [2] were above 5000 nM and 3140 nM, respectively.

In the case of `COc1cnn(CCN2CCOCC2)c(=O)c1-c1ccc(C[C@H](NC(=O)[C@H](N)C(C)C)C(=O)O)cc1` [Cpd 210], the IC50 is above 5000 nM in assay [1] and 4650 nM in assay [2].

Regarding `COc1cnn(C)c(=O)c1-c1ccc(CC(NC(=O)C(C(C)C)n2c(C)cc(C(=O)c3ccccc3)c2C)C(=O)O)cc1` (stereo not shown) [Cpd 211, 2-[2-(3-Benzoyl-2,5-dimethyl-pyrrol-1-yl)-3-methyl-butyrylamino]-[4-(5-methoxy-2-methyl-3-oxo-2,3-dihydro-pyridazin-4-yl)-phenyl]-propionic acid], the figures for the IC50 in assay [1] and in assay [2] were above 5000 nM and 529 nM, respectively.

Turning to `COc1cnn(CCO)c(=O)c1-c1ccc(C[C@H](NC(=O)OC(C)(C)C)C(=O)OCCO)cc1` [Cpd 212], the IC50 in assay [1] and in assay [2] was above 5000 nM throughout.

`COc1cnn(C)c(=O)c1-c1ccc(CC(NC(=O)C(C(C)C)n2c(C)ccc2C)C(=O)O)cc1` (stereo not shown) [Cpd 213]: the IC50 was determined as 2880 nM in assay [1] and 264 nM in assay [2].

In the case of `COc1cnn(C)c(=O)c1-c1ccc(CC(NC(=O)C(C(C)C)n2c(C)ccc2C)C(=O)O)cc1` (stereo not shown) [Cpd 214], the IC50 in assay [1] worked out at 1070 nM; in assay [2] it was 23 nM.

Regarding `COc1cnn(C)c(=O)c1-c1ccc(CC(NC(=O)C(C(C)C)n2c(C)ccc2C)C(=O)O)cc1` (stereo not shown) [Cpd 215], the IC50 in assay [1] was above 5000 nM; in assay [2] it was 305 nM.

With `COc1cnn(C)c(=O)c1-c1ccc(C[C@H](NC(=O)C2(O)CC2)C(=O)O)cc1` [Cpd 217], the values for the IC50 in assay [1] and in assay [2] were above 5000 nM and 640 nM, respectively.

For the compound `COc1cnn(C)c(=O)c1-c1ccc(C[C@H](NC(=O)C(C)(C)NC(C)C)C(=O)O)cc1` [Cpd 218], the IC50 in assay [1] was above 5000 nM; in assay [2], 239 nM.

Turning to `COc1cnn(C)c(=O)c1-c1ccc(C[C@H](NC(=O)NC2CCCCC2)C(=O)O)cc1` [Cpd 219], the results for the IC50 in assay [1] and in assay [2] were above 5000 nM and 852 nM, respectively.

Regarding `COc1cnn(C)c(=O)c1-c1ccc(C[C@H](NC(=O)C(C)(C)NC2CCC3(CC2)OCCO3)C(=O)O)cc1` [Cpd 220], the IC50 was above 5000 nM in assay [1] and 263 nM in assay [2].

With `CNC(C)(C)C(=O)N[C@@H](Cc1ccc(-c2c(OC)cnn(C)c2=O)cc1)C(=O)O` [Cpd 221], the IC50 in assay [1] was above 5000 nM; in assay [2], 380 nM.

`COc1cnn(C)c(=O)c1-c1ccc(C[C@H](NC(=O)C2(NC(=O)OC(C)(C)C)CCCCC2)C(=O)O)cc1` [Cpd 222]: the IC50 in assay [1] is above 5000 nM; in assay [2], 401 nM.

As to `COc1cnn(C)c(=O)c1-c1ccc(C[C@H](NC(=O)C2(NC(=O)OC(C)(C)C)CCCC2)C(=O)O)cc1` [Cpd 223], the IC50 in assay [1] was above 5000 nM; in assay [2] it was 115 nM.

Regarding `COc1cnn(C)c(=O)c1-c1ccc(C[C@H](NC(=O)C2(NC3CCC4(CC3)OCCO4)CC2)C(=O)O)cc1` [Cpd 224], the IC50 in assay [1] is above 5000 nM; in assay [2], 14 nM.

In the case of `COc1cnn(C)c(=O)c1-c1ccc(C[C@H](NC(=O)C2(NC3CCCC3)CC2)C(=O)O)cc1` [Cpd 225], the IC50 in assay [1] turned out to be 472 nM; in assay [2] it was 13 nM.

Consider `COc1cnn(C)c(=O)c1-c1ccc(C[C@H](NC(=O)C2(NC(C)=O)CC2)C(=O)O)cc1` [Cpd 227], for which the values for the IC50 in assay [1] and in assay [2] were above 5000 nM and 219 nM, respectively.

As for `COc1cnn(CC(C)=O)c(=O)c1-c1ccc(C[C@H](NC(=O)c2c(Cl)cccc2Cl)C(=O)O)cc1` [Cpd 228], the figures for the IC50 in assay [1] and in assay [2] were 535 nM and 6 nM, respectively.

In the case of `COc1cnn(C)c(=O)c1-c1ccc(C[C@H](NC(=O)C(C)(C)NC(N)=O)C(=O)O)cc1` [Cpd 229], the IC50 was above 5000 nM in assay [1] and 89 nM in assay [2].
